Data on 24 compounds can be found in US6867299B2, “Oxamide IMPDH inhibitors” (Hoffmann-La Roche Inc., priority 2000, dated 2005).

Structures can show the parent of a compound that is named as a salt.

The assay addresses IMPDH (human type II) (Homo sapiens, UniProt P12268). Kind of assay: IMPDH inhibitor assay, spectrophotometric (NADH formation at 340 nm). It is filed as biochemical. Particulars: 37° C., pH8.0, 2.5% DMSO, 10 concentrations of inhibitor. The method, then: IMPDH activity can be assayed using an adaptation of the method reported by Carr [S. Carr et al., J. Biol. Chem. 268, p.27286 (1993)], the disclosure of which is herein incorporated by reference. IMPDH activity was measured spectrophotometrically, by monitoring the increase in absorbance at 340 nm due to the formation of NADH (ε340 is 6220 M−1 cm−1) from the reduction of NAD. The IMPDH reaction mixture contained 0.1M Tris pH8.0, 0.1M KCl, 1 mM DTT, 3 mM EDTA, […]. The reaction was initiated by the addition of IMPDH (human type II) to a final concentration in the assay of between 1 nM and 5 nM with respect to the IMPDH tetramer. The initial rate is measured by following the linear increase in absorbance at 340 nm at 37° C. for 45 minutes. The reading was conducted using a Spectromax 190 (Molecular Devices) spectrophotometer in a 96 well plate format with a final reaction volume of 200 μl.
For inhibitor assay analysis, the compound is dissolved in DMSO to a final concentration of 10 mM and added to the initial reaction mixture as 5 μl to give final DMSO concentration of 2.5%. The enzyme reaction is initiated by the addition of IMPDH and the initial rates measured as above. IC50 determinations are made by measuring the initial rates in the presence of 10 concentrations of inhibitor and fitting the data using the 4 parameter curve fit from the Softmax pro software (Molecular Devices).
For `COc1cc(NC(=O)C(=O)Nc2cccc(CNC(=O)OC(C)C)c2)ccc1-c1cnco1` [Isopropyl [3-[[[3-methoxy-4-(5-oxazolyl)anilino]oxalyl]amino]benzyl]carbamate], the IC50 (as a rule, the point on the concentration scale where inhibition reaches its midpoint) worked out at 33 nM.
Take `COC(=O)NCc1cccc(NC(=O)C(=O)Nc2ccc(-c3cnco3)c(OC)c2)c1` [Methyl [3-[[[3-methoxy-4-(5-oxazolyl)anilino]oxalyl]amino]benzyl] carbamate]: the IC50 was found to be 121 nM.
As for `COc1cc(NC(=O)C(=O)NC(C)(C)Cc2ccccc2)ccc1-c1cnco1` [N-(1,1-Dimethyl-2-phenylethyl)-N′-[3-methoxy-4-(5-oxazolyl)phenyl]oxalamide], the figure is 15 nM.
On to `C#CC(C)(C)NC(=O)C(=O)Nc1ccc(-c2cnco2)c(OC)c1` [N-(1,1-Dimethylpropargyl)-N′-[3-methoxy-4-(5-oxazolyl)phenyl]oxalamide], for which the IC50 turned out to be 48 nM.
In turn, `CCC(C)(C)NC(=O)C(=O)Nc1ccc(-c2cnco2)c(OC)c1` [N-(1,1-Dimethylpropyl)-N′-[3-methoxy-4-(5-oxazolyl)phenyl]oxalamide] returned a half-inhibitory concentration (IC50) of 31 nM. Against the preceding compound, the IC50 is about 1.5-fold lower.
Compound `COc1cc(NC(=O)C(=O)NC(C)(C)CN)ccc1-c1cnco1` [N-(2-Amino-1,1-dimethylethyl)-N′-[3-methoxy-4-(5-oxazolyl)kphenyl]oxalamide trifluoroacetate (1:1)] gave an IC50 of 97 nM.
`COc1cc(NC(=O)C(=O)NC(C)(C)CN(C)C)ccc1-c1cnco1` [N-(2-Dimethylamino-1,1-dimethylethyl)-N′-[3-methoxy-4-(5-oxazolyl)phenyl]oxalamide hydrochloride (1:1)]: the half-inhibitory concentration (IC50) came to 170 nM. This IC50 lies about 1.8-fold higher than the previous one.
With `COc1cc(NC(=O)C(=O)NC(C)(C)CO)ccc1-c1cnco1` [N-(2-Hydroxy-1,1-dimethylethyl)-N′-[3-methoxy-4-(5-oxazolyl)phenyl]oxalamide], 72 nM corresponded to half-maximal inhibition (IC50).
`COc1cc(NC(=O)C(=O)Nc2cccc(CN)c2)ccc1-c1cnco1` [N-[3-(Aminomethyl)phenyl]-N′-[3-methoxy-4-(5-oxazolyl)phenyl]oxalamide trifluoroacetate (1:1)]: half-maximal inhibition (IC50) required 233 nM.
As for `COc1cc(NC(=O)C(=O)Nc2cccc(CNC(=O)c3ccccc3)c2)ccc1-c1cnco1` [N-[3-(Benzamidomethyl)phenyl]-N′-[3-methoxy-4-(5-oxazolyl)phenyl]oxalamide], the figure is 13 nM.
`COc1cc(NC(=O)C(=O)NC(C)(C)CC(C)(C)C)ccc1-c1cnco1` [N-[3-Methoxy-4-(5-oxazolyl)phenyl]-N′-(1,1,3,3-tetramethyl-butyl)oxalamide]: the IC50 came to 34 nM.
For the compound `COc1cc(NC(=O)C(=O)NC(C)(C)c2ccccc2)ccc1-c1cnco1` [N-[3-Methoxy-4-(5-oxazolyl)phenyl]-N′-(1-methyl-1-phenylethyl)oxalamide], the IC50 amounted to 30 nM.
Take `COc1cc(NC(=O)C(=O)Nc2cccnc2)ccc1-c1cnco1` [N-[3-Methoxy-4-(5-oxazolyl)phenyl]-N′-(3-pyridyl)oxalamide]: the IC50 came to 277 nM.
The compound `COc1cc(NC(=O)C(=O)NC(C)(C)Cc2ccc([N+](=O)[O-])cc2)ccc1-c1cnco1` [N-[3-Methoxy-4-(5-oxazolyl)phenyl]-N′-[1,1-dimethyl-2-(4-nitrophenyl)ethyl]oxalamide] yielded an IC50 of 10 nM.
Compound `CNC(=O)C(C)(C)NC(=O)C(=O)Nc1ccc(-c2cnco2)c(OC)c1` [N-[3-Methoxy-4-(5-oxazolyl)phenyl]-N′-[1-methyl-1-(methylcarbamoyl)ethyl]oxalamide] gave an IC50 of 199 nM. This IC50 is about 20-fold higher than that of the compound before.
With `COc1cc(NC(=O)C(=O)Nc2cccc(CC(=O)Nc3ccccc3)c2)ccc1-c1cnco1` [N-[3-Methoxy-4-(5-oxazolyl)phenyl]-N′-[3-[(phenylcarbamoyl)methyl]phenyl]oxalamide] the figure was 35 nM; with `COc1cc(NC(=O)C(=O)Nc2cccc(CNS(=O)(=O)c3ccccc3)c2)ccc1-c1cnco1` [N-[3-[(Benzenesulfonamido)methyl]phenyl]-N′-[3-methoxy-4-(5-oxazolyl)phenyl]oxalamide], 125 nM.
As for `CC(C)(C)NC(=O)C(=O)Nc1ccc(-c2cnco2)c(Cl)c1` [N-tert-Butyl-N′-[3-chloro-4-(5-oxazolyl)phenyl]oxalamide], the figure is 169 nM; as for `COc1cc(NC(=O)C(=O)NC(C)(C)C)ccc1-c1cocn1` [N-tert-Butyl-N′-[3-methoxy-4-(4-oxazolyl)phenyl]oxalamide], 460 nM; as for `COc1cc(NC(=O)C(=O)NC(C)(C)C)ccc1-c1cnco1` [N-tert-Butyl-N′-[3-methoxy-4-(5-oxazolyl)phenyl]oxalamide], 37 nM.
For the compound `COc1cc(NC(=O)C(=O)Nc2cccc(CNC(=O)Oc3ccccc3)c2)ccc1-c1cnco1` [Phenyl [3-[[[4-(5-oxazolyl)anilino]oxalyl]amino]benzyl]carbamate], the midpoint of inhibition, the IC50, lay at 11 nM.
As for `COc1cc(NC(=O)C(=O)Nc2cccc(CNC(=O)O[C@H]3CCOC3)c2)ccc1-c1cnco1` [[3-[[[3-Methoxy-4-(5-oxazolyl)anilino]oxalyl]amino]benzyl]carbamic acid tetrahydro-3(S)-furyl ester], the figure is 44 nM; as for `COc1cc(NC(=O)C(=O)NC(C)(C)CNC(=O)OC(C)(C)C)ccc1-c1cnco1` [tert-Butyl [2-[[[3-methoxy-4-(5-oxazolyl)anilino]oxalyl]amino]-2-methylpropyl]carbamate], 75 nM; as for `COc1cc(NC(=O)C(=O)Nc2cccc(CNC(=O)OC(C)(C)C)c2)ccc1-c1cnco1` [tert-Butyl [3-[[[3-methoxy-4-(5-oxazolyl)anilino]oxalyl]amino]benzyl]carbamate], 36 nM.
